The structures appear in SMILES notation. Where a name gives a salt, the structure may show the parent alone.

One may read the Cmax as the highest concentration seen after dosing. Broadly, the melting point is the temperature, or range, at which the solid turns liquid.

A short description of the first data set: Plasma concentration (Cmax) of gabapentin in the rat.
Turning to `NCC1(CC(=O)O)CCCCC1` [gabapentin, 1-(aminomethyl)-cyclohexylacetic acid], the peak concentration (Cmax) was 520 to 10500 ng/mL.

Assay in a further data set: not given
As for `CCCC[C@@H](C)C[C@H](N)CC(=O)O` (as salt: hydrochloride), the melting point lay within 142.5 to 143.3 °C.

With `CCCC(C)(C)C[C@H](N)CC(=O)O` (as salt: hydrochloride) (hydrate or solvate), the melting point was 194.2 to 195.2 °C.

For the compound `CCC[C@@H](C)C[C@H](N)CC(=O)O.Cl`, the melting point was 142.5 to 142.7 °C.

The compound `CCCC(C)(C)CC(CN)C(=O)O.Cl` (stereo not drawn) displayed a melting point of 229.5 to 231 °C.

For `CCC[C@@H](C)C[C@H](CN)C(=O)O` (as salt: hydrochloride), the melting point was 226.3 to 228 °C.

The record behind these values is patent US20050065176A1, “Combinations” (priority 2003, published 2005).
